These are literature values, as cited in paper PMC8450225 (Bioorganic & Medicinal Chemistry, 2021).

Read-outs that look alike come from different tables or passages of the source. Primed or numbered codes have the meaning given here. Bz′ = not defined here

The target of data set [1] is NS2B-NS3 pro. To be noted: read-out: Ki (Reported).
The subject of data set [2] is DENV2 pro.
The subject of data set [3] is DENV 1–4 pro. To be noted: range over DENV 1–4 pro.
Data set [4] relates to DENV2. To be noted: DENV2 replication inhibition, BHK21 cells.
Data set [5] relates to DENV2. To be noted: antiviral activity against DENV2.
Data set [6] relates to HuH-7 cells. To be noted: 1 µM, three days of incubation on HuH-7 cells, Alamar Blue.
Data set [7] deals with dengue serotype 2. To be noted: at 1 µM concentration, HuH-7 and K562 cell lines.
Data set [8] concerns DENV2. To be noted: DENV2 viral replication assay.
Data set [9] deals with DENV2 pro. The source holds these as a separate data set.
The subject of data set [10] is DENV2 pro. This is another data set of the same source.
Data set [11] deals with DENV. To be noted: at 100 µM.
In data set [12] the test system is DENV2 pro. This is another data set of the same source.
The subject of data set [13] is DENV2 pro. This is another data set of the same source.
The test system of data set [14] is DENV NS2B-NS3 pro. To be noted: 50 µM substrate concentration and 50 µM compound concentration.
Data set [15] concerns WNV NS2B-NS3 pro. To be noted: 50 µM substrate concentration and 25 µM compound concentration.

As to Ac-RTSKKR-NH2, the inhibition constant (Ki) (commonly a measure of affinity in units of concentration, obtained from inhibition or displacement) in [1] was 12.1 µM. As for `CCc1ccc(NS(=O)(=O)c2ccc(N3C(=O)c4ccccc4C3=O)cc2)cc1` [Compound 46], the IC50 (commonly the concentration needed to halve the response being measured) in data set [2] is 48.2 µM. Take `Cc1ccc(C2=NC(=O)/C(=C/c3cc(O)c(O)c(Br)c3)S2)cc1` [Compound 42]: the IC50 in data set [3] is 2.94 to 4.06 µM. Also, in data set [4], the EC50 (in general, the concentration giving half of the maximal effect) is 6.9 ± 0.6 µM. As to `CCCCC1C(C(=O)N(C)OC)C(c2ccccc2)CCN1C(=O)OC(C)(C)C` (stereo not shown) [Compound 51], the EC50 in data set [5] is 2.4 µM. As for “BZ-Ala-Lys-Arg-Arg-H ({Bz′}-AKRR-aldehyde; also: C-terminal aldehyde)”, the inhibition constant Ki in data set [1] was 5.3 µM. In the case of `O=C1c2c(O)ccc([N+](=O)[O-])c2C(=O)c2c([N+](=O)[O-])ccc(O)c21` [ARDP0006], the cytotoxicity entry in data set [6] is recorded as “non-cytotoxic”. The “reduction of dengue viral titer” value in data set [7] is on record as more than 1 log PFU/mL. As to `O=C(Nc1nc2cc(O)c(O)cc2s1)c1ccccc1Sc1ccc(C(F)(F)F)cc1` [Compound 38], in data set [8], the EC50 is more than 3 µM. On to Bz-Arg-Lys-(4-benzyloxy)-D-Phg-NH2, for which the IC50 in [9] is 0.367 µM. `Cc1cc(O)c(S(=O)(=O)O)cc1Cc1cc(S(=O)(=O)O)c(O)c(Cc2cc(S(=O)(=O)O)c(O)cc2C)c1C` [Compound 60]: the IC50 result in data set [10] is “IC50 = 0.48 μg/mL”. For the molecule kaempferol-3-O-rutinoside [Compound 24], the DENV inhibition in [11] is listed as 77.7%. For `COc1cc2nc(NC(=O)c3ccccc3Sc3ccc(C(F)(F)F)cc3)sc2cc1OC` [Compound 40], the IC50 result in data set [12] is “inactive”. Turning to `CC(=O)O[C@H]1CC(C)(C)C(=C=C/C(C)=C/C=C/C=C/C=C(C)/C=C2C=C(/C=C/[C@@]34O[C@]3(C)C[C@@H](O)CC4(C)C)C(=O)O/2)[C@](C)(O)C1` [Compound 35, peridinin], in data set [13], the EC50 is 8.5 ± 0.41 µM. “Bz-Arg-Lys-(4-CF3-benzyl ether)-D-Phg-NH2 [Compound 7]”: the IC50 in data set [9] is 0.069 µM. As for `O=C(Nc1nc2cc(O)c(O)cc2s1)c1ccccc1Oc1ccc2cc(O)ccc2c1` [Compound 39], the IC50 in [12] was 4.2 ± 0.44 µM. On to `CN(C)C(=O)COC(=O)Cc1ccc(OC(=O)c2ccc(NC(=N)N)cc2)cc1` [Camostat], for which, in data set [14], the “Percentage inhibition of NS2B-NS3 pro, DENV” value is 19.6%. Moreover, the “Percentage inhibition of NS2B-NS3 pro, WNV” value in data set [15] is 12.6%. On to `O=C(OC[C@H]1O[C@@H](OC(=O)c2cc(O)c(O)c(OC(=O)c3cc(O)c(O)c(O)c3)c2)[C@H](OC(=O)c2cc(O)c(O)c(OC(=O)c3cc(O)c(O)c(O)c3)c2)[C@@H](OC(=O)c2cc(O)c(O)c(OC(=O)c3cc(O)c(O)c(O)c3)c2)[C@@H]1OC(=O)c1cc(O)c(O)c(OC(=O)c2cc(O)c(O)c(O)c2)c1)c1cc(O)c(O)c(OC(=O)c2cc(O)c(O)c(O)c2)c1` [Compound 44], for which, in data set [3], the IC50 is 0.13 to 0.77 µM. In the case of Bz-Arg-Lys-Phg-NH2 [reference compound], the IC50 in data set [9] (starting tripeptide) is 3.32 µM. Take `Cc1ccc(C(=O)c2cc(O)c(O)c([N+](=O)[O-])c2)cc1` [Compound 43]: the IC50 in [3] is 0.64 to 1.15 µM. Further, the EC50 in data set [4] is 2.29 µM.
